Results on 28 molecules are retold here after patent US9914730B2, “Azaquinazoline inhibitors of Atypical protein Kinase C” (Ignyta, Inc., priority 2012, dated 2018).

The target in the experiment is T1, full-length human PKCι (Homo sapiens, UniProt P41743).
T1 construct: Recombinant, full-length human PKCι expressed in Sf21 insect cells is also commercially available; purchased; host or cells: Sf21 insect cells
T1 sequence (P41743 1-596): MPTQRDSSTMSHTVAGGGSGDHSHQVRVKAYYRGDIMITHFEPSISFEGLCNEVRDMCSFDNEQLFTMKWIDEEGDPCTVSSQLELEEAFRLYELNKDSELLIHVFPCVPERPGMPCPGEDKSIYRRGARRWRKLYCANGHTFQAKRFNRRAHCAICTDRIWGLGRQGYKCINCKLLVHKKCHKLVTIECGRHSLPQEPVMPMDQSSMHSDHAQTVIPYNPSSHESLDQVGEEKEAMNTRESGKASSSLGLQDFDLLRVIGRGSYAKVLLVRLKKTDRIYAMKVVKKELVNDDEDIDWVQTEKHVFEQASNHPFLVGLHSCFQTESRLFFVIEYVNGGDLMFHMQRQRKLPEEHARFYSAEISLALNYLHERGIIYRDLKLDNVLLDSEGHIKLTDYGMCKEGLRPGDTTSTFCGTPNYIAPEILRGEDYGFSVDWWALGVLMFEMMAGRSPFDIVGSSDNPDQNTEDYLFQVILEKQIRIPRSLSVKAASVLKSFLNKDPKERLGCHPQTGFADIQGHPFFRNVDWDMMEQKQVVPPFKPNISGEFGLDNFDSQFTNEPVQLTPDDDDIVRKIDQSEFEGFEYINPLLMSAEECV
Kind of experiment: PKCι IC50 IMAP assay, full-length PKCι at 150 μM ATP. The experiment is classed as biochemical. As to conditions: read-out: IC50 in IMAP assay against full length PKCi at 150 μM ATP. The procedure, abridged: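 IMAP fluorescence polarisation (ex 485/em 530 nm) read-out; % inhibition set from no-compound (0%) and no-enzyme (100%) controls, IC50 from dose-response curve fit. Sf21-expressed full-length enzyme ~15 pM, 100 nM FAM peptide, ATP 150 μM (5× KM^APP), 60 min at RT.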

A value given as a limit tells only on which side of the number the result lay.

With `FC(F)(F)c1ccnc(Nc2cc(-c3nc(N4CCNCC4)c4c(C5CC5)cncc4n3)ccn2)c1` [Example 269, [4-(5-Cyclopropyl-4-piperazin-1-yl-pyrido[3,4-d]pyrimidin-2-yl)-pyridin-2-yl]-(4-trifluoromethyl-pyridin-2-yl)-amine], the 50% inhibitory concentration (IC50) (usually the point on the concentration scale where inhibition reaches its midpoint) was less than 100 nM. For `CN(c1nc(-c2ccnc(Nc3ncc(F)cc3F)c2)nc2cncc(C3CC3)c12)C1CCNCC1` [Example 2095, {5-Cyclopropyl-2-[2-(3,5-difluoro-pyridin-2-ylamino)-pyridin-4-yl]-pyrido[3,4-d]pyrimidin-4-yl}-methyl-piperidin-4-yl-amine], the half-maximal inhibitory concentration (IC50) is less than 100 nM. Take `COc1cncc2nc(-c3ccnc(Nc4ccccc4)c3)nc(N3CCC(O)C(O)C3)c12` (single isomer, unassigned) [Example 463, (3R,4S)-1-[5-Methoxy-2-(2-phenylamino-pyridin-4-yl)-pyrido[3,4-d]pyrimidin-4-yl]-piperidine-3,4-diol or (3S,4R)-1-[5-Methoxy-2-(2-phenylamino-pyridin-4-yl)-pyrido[3,4-d]pyrimidin-4-yl]-piperidine-3,4-diol]: the IC50 was in the range of 1000 to 10000 nM. Take `C=C(C)c1cncc2nc(-c3ccncc3)nc(N3CCNCC3)c12` [Example 143, 5-Isopropenyl-4-piperazin-1-yl-2-pyridin-4-yl-pyrido[3,4-d]pyrimidine]: the concentration for half-maximal inhibition (IC50) was less than 100 nM. As for `CNCCNc1nc(-c2ccnc(Nc3c(F)cccc3F)c2)nc2cncc(C3CC3)c12` [Example 775, N-{5-Cyclopropyl-2-[2-(2,6-difluoro-phenylamino)-pyridin-4-yl]-pyrido[3,4-d]pyrimidin-4-yl}-N′-methyl-ethane-1,2-diamine], the IC50 is less than 100 nM.

`O[C@@H]1CCCN(c2nc(-c3ccnc(Nc4cccc(F)n4)c3)nc3cncc(C4CC4)c23)C1` [Example 806, (R)-1-{5-Cyclopropyl-2-[2-(6-fluoro-pyridin-2-ylamino)-pyridin-4-yl]-pyrido[3,4-d]pyrimidin-4-yl}-piperidin-3-ol]: the IC50 lay within 1000 to 10000 nM. Consider `Fc1cccc(Nc2cc(-c3nc(N4CCNCC4)c4c(C5CC5)cncc4n3)ccn2)c1Cl` [Example 578, (2-Chloro-3-fluoro-phenyl)-[4-(5-eyclopropyl-4-piperazin-1-yl-pyrido[3,4-d]pyrimidin-2-yl)-pyridin-2-yl]-Amine], for which the IC50 is less than 100 nM. The figure for `C[C@@H](Nc1cc(-c2nc(N3CCNC(C)(C)C3)c3c(C4CC4)cncc3n2)ccn1)c1ccccc1` [Example 2007, {4-[5-Cyclopropyl-4-(3,3-dimethyl-piperazin-1-yl)-pyrido[3,4-d]pyrimidin-2-yl]-pyridin-2-yl}-((R)-1-phenyl-ethyl)-amine] is less than 100 nM. As for `CN(C)CCCCNc1nc(-c2ccnc(Nc3c(F)cccc3F)c2)nc2cncc(C3CC3)c12` [Example 803, N-{5-Cyclopropyl-2-[2-(2,6-difluoro-phenylamino)-pyridin-4-yl]-pyrido[3,4-d]pyrimidin-4-yl}-N′,N′-dimethyl-butane-1,4-diamine], the IC50 fell in the range of 100 to 1000 nM.

In the case of `O=C(NCCF)C1CCN(c2nc(-c3ccnc(Nc4c(F)cccc4F)c3)nc3cncc(C4CC4)c23)CC1` [Example 658, 1-{5-Cyclopropyl-2-[2-(2,6-difluoro-phenylamino)-pyridin-4-yl]-pyrido[3,4-d]pyrimidin-4-yl}-piperidine-4-carboxylic acid (2-fluoro-ethyl)-amide], the IC50 was in the range of 1000 to 10000 nM. Consider `Cc1ccc(C)c(Nc2cc(-c3nc(N4CCNCC4)c4c(C5CC5)cncc4n3)ccn2)c1` [Example 505, [4-(5-Cyclopropyl-4-piperazin-1-yl-pyrido[3,4-d]pyrimidin-2-yl)-pyridin-2-yl]-(2,5-dimethyl-phenyl)-amine], for which the IC50 is less than 100 nM. `c1cc(-c2nccc3c(N[C@@H]4CCNC4)nc(N4CCOCC4)nc23)[nH]n1` [Example 1012, [2-Morpholin-4-yl-8-(2H-pyrazol-3-yl)-pyrido[3,4-d]pyrimidin-4-yl]-(R)-pyrrolidin-3-yl-amine]: the IC50 was 1000 to 10000 nM. On to `COc1cncc2nc(-c3ccnc(Nc4ccc(Cn5ccnc5)cc4)c3)nc(N[C@@H]3CCNC3)c12` [Example 333, {2-[2-(4-Imidazol-1-ylmethyl-phenylamino)-pyridin-4-yl]-5-methoxy-pyrido[3,4-d]pyrimidin-4-yl}-(R)-pyrrolidin-3-yl-amine], for which the IC50 was in the range of 1000 to 10000 nM. As to `COc1cncc2nc(-c3ccnc(Nc4ccc(C#N)nc4)c3)nc(N3CCNCC3)c12` [Example 384], the IC50 fell in the range of 100 to 1000 nM.

`O=C1CC(Nc2nc(-c3ccnc(Nc4c(F)cccc4F)c3)nc3cncc(C4CC4)c23)CCN1` (stereo not shown) [Example 2076, 4-{5-Cyclopropyl-2-[2-(2,6-difluoro-phenylamino)-pyridin-4-yl]-pyrido[3,4-d]pyrimidin-4-ylamino}-piperidin-2-one]: the IC50 lay within 100 to 1000 nM. In the case of `OCCN1CCN(c2nc(-c3ccncc3)nc3cnccc23)CC1` [Example 34, 2-{4-[2-(pyridin-4-yl)pyrido[3,4-d]-pyrimidin-4-yl]-piperazin-1-yl}-ethan-1-ol], the IC50 lay in the range of 10000 to 40000 nM. On to `FC(F)(F)Cn1ccc(Nc2cc(-c3nc(N4CCNCC4)c4c(C5CC5)cncc4n3)ccn2)n1` [Example 2016, [4-(5-Cyclopropyl-4-piperazin-1-yl-pyrido[3,4-d]pyrimidin-2-yl)-pyridin-2-yl]-[1-(2,2,2-trifluoro-ethyl)-1H-pyrazol-3-yl]-amine], for which the IC50 was less than 100 nM. As for `N#CC[C@H]1CN(c2nc(-c3ccnc4[nH]ccc34)nc3cncc(C4CC4)c23)CCN1` [Example 1221, {(S)-4-[5-Cyclopropyl-2-(1H-pyrrolo[2,3-b]pyridin-4-yl)-pyrido[3,4-d]pyrimidin-4-yl]-piperazin-2-yl}-acetonitrile], the figure is less than 100 nM.

On to `Fc1cccc(F)c1Nc1cc(-c2nc(N3CCCNCC3)c3c(C4CC4)cncc3n2)ccn1` [Example 702, [4-(5-Cyclopropyl-4-[1,4]diazepan-1-yl-pyrido[3,4-d]pyrimidin-2-yl)-pyridin-2-yl]-(2,6-difluoro-phenyl)-amine], for which the concentration for half-maximal inhibition (IC50) fell in the range of 100 to 1000 nM.

As for `c1cc(-c2nc(N3CCN[C@@H](C4CC4)C3)c3c(C4CC4)cncc3n2)c2cc[nH]c2n1` [Example 1220, 5-Cyclopropyl-4-((S)-3-cyclopropyl-piperazin-1-yl)-2-(1H-pyrrolo[2,3-b]pyridin-4-yl)-pyrido[3,4-d]pyrimidine], the concentration for half-maximal inhibition (IC50) was less than 100 nM. Turning to `c1ccc(Nc2cc(-c3nc(N4CCNCC4)c4c(C5CCC5)cncc4n3)ccn2)cc1` [Example 619, [4-(5-Cyclobutyl-4-piperazin-1-yl-pyrido[3,4-d]pyrimidin-2-yl)-pyridin-2-yl]-phenyl-amine], the IC50 was less than 100 nM.

As to `c1cc(Nc2cc(-c3nc(N[C@@H]4CCNC4)c4ccncc4n3)ccn2)ncn1` [Example 347, {2-[2-(Pyrimidin-4-ylamino)-pyridin-4-yl]-pyrido[3,4-d]pyrimidin-4-yl}-(R)-pyrrolidin-3-yl-amine], the IC50 is less than 100 nM. As to `Fc1ccc(Nc2cc(-c3nc(N4CCNCC4)c4c(C5CC5)cncc4n3)ccn2)nn1` [Example 2191, [4-(5-Cyclopropyl-4-piperazin-1-yl-pyrido[3,4-d]pyrimidin-2-yl)-pyridin-2-yl]-(6-fluoro-pyridazin-3-yl)-amine], the half-inhibitory concentration (IC50) was less than 100 nM. Take `CCn1cc(Cl)c(Nc2cc(-c3nc(N4CCNC(C)(C)C4)c4c(C5CC5)cncc4n3)ccn2)n1` [Example 2043, (4-Chloro-1-ethyl-1H-pyrazol-3-yl)-{4-[5-cyclopropyl-4-(3,3-dimethyl-piperazin-1-yl)-pyrido[3,4-d]pyrimidin-2-yl]-pyridin-2-yl}-amine]: the IC50 is less than 100 nM. With `C[C@H]1CN(c2nc(-c3ccnc(Nc4ccc(C(F)(F)F)cn4)c3)nc3cncc(C4CC4)c23)CCN1` [Example 839, {4-[5-Cyclopropyl-4-((S)-3-methyl-piperazin-1-yl)-pyrido[3,4-d]pyrimidin-2-yl]-pyridin-2-yl}-(5-trifluoromethyl-pyridin-2-yl)-amine], the IC50 was less than 100 nM.

Consider `Fc1cccc(Nc2cc(-c3nc(N4CCN[C@@H](C5CC5)C4)c4c(C5CC5)cncc4n3)ccn2)n1` [Example 277, {4-[5-Cyclopropyl-4-((S)-3-cyclopropyl-piperazin-1-yl)-pyrido[3,4-d]pyrimidin-2-yl]-pyridin-2-yl}-(6-fluoro-pyridin-2-yl)-amine], for which the IC50 is less than 100 nM. For the molecule `COc1cncc2nc(-c3ccnc(Nc4ccccc4)c3)nc(NC[C@H]3CCCN3)c12` [Example 431, [5-Methoxy-2-(2-phenylamino-pyridin-4-yl)-pyrido[3,4-d]pyrimidin-4-yl]-(R)-1-pyrrolidin-2-ylmethyl-amine], the IC50 was in the range of 100 to 1000 nM. As for `c1cc(-c2nc(N3CCNCC3)c3c(C4CCC4)cncc3n2)c2c3c([nH]c2n1)CCCC3` [Example 2199, 4-(5-Cyclobutyl-4-piperazin-1-yl-pyrido[3,4-d]pyrimidin-2-yl)-6,7,8,9-tetrahydro-5H-pyrido[2,3-b]indole], the figure is 100 to 1000 nM.
